Each block holds one compound with its values, some of them ahead of it. Residues, ends and D or L forms follow the SMILES beside them.
What was measured:
[1] = Sweetness comparison procedure against sucrose reference solutions (sensory panel); format: in vivo; conditions: experienced sensory evaluators
Method: The S,S stereoisomer of monatin is approximately 50-200 times sweeter than sucrose by weight. The R,R stereoisomer of monatin is approximately 2000-2400 times sweeter than sucrose by weight. The sweetness of the monatin is calculated using experienced sensory evaluators in a sweetness comparison procedure, where a test sweetener solution is matched for sweetness intensity against one of a series of reference solutions.
Specifically, one may assess sweetness of a sweetener relative to sucrose by using a panel of trained sensory evaluators experienced in the sweetness estimation procedure. All samples (in same buffers) are served in duplicate at a temperature of 22° C.±1° C. Sample solutions may be prepared, for example, using a buffer comprising 0.16% (v/w) citric acid and 0.02% (v/w) sodium citrate at ˜pH 3.0. Test solutions, coded with 3 digit random number codes, are presented individually to panelists, in random order. Sucrose reference standards, ranging from 2.0-10.0% (w/v) sucrose, increasing in steps of 0.5% (w/v) sucrose are also provided. Panelists are asked to estimate sweetness by comparing the sweetness of the test solution to the sucrose standards. […]
Sucrose equivalent value (SEV) (e.g., % sucrose), determined by the panel of trained sensory evaluators, is plotted as a function of monatin concentration to obtain a dose response curve. […]

[2] = Sensory evaluation of sweeteners in iced tea; format: in vivo; conditions: 200 ml serving, aspartame 450 ppm, monatin 40 ppm, panel n=6; for Comments: sweetness and flavor profile: sucralose 170 ppm
Method: Monatin formulations, including R,R monatin or R,R monatin/erythritol combinations, were assessed relative to other known sweeteners (aspartame and sucralose) in iced tea. The key sensory parameters assessed included sweetness quality, aftertaste, bitter taste and its aftertaste. Qualitative evaluation has been carried out.
An ice tea formulation was developed to evaluate sweetener performance (Table 7).
Sweeteners were added to tea at the following concentrations:
The evaluation of ice tea drinks was carried out by a panel (n=6) of experienced sensory evaluators.

[3] = Sensory stability of monatin and aspartame at pH 2.5, 3.0, 4.0 at 40° C.; format: physicochemical; conditions: for Rate constant (k) of sweetness loss: 40° C., pseudo-first order assumed; for Sweetness Retained: after 100 days storage at 40° C.; for SEV Aspartame / Retention of Aspartame Sweetness: stored at 40° C., aspartame 400 ppm
Method: The sensory stability of monatin solutions prepared at pH 2.5, 3.0 and 4.0 and stored at 40° C. was monitored for 100 days. Loss of sweetness from these solutions was compared with the losses of sweetness from aspartame solutions prepared and stored under identical conditions.
The sensory stability of monatin (8% SEV, ˜55 ppm, synthetic blend containing approximately 96% of the 2R,4R/2S, 4S enantiometric pair and 4% of the 2R,4S/2S,4R enantiometric pair) in phosphate/citrate buffers having a pH of 2.5, 3.0, and 4.0 was examined after storage at 40° C. The stability of monatin was compared to that of aspartame (400 ppm) in the same buffers. Three sucrose reference solutions were prepared in the same phosphate/citrate buffers as the monatin and aspartame solutions. All prepared solutions were stored in the dark.
The sweetness of each sweetener relative to sucrose was assessed in duplicate by a panel (n=8) of trained sensory evaluators experienced in the sweetness estimation procedure. All samples (in the same buffers) were served in duplicate at a temperature of 22° C.±1° C. Monatin (test) solutions, coded with 3 digit random number codes were presented individually to panelists, in random order. Sucrose reference standards, ranging from 4.0-10.0% (w/v) sucrose, increasing in steps of 0.5% (w/v) sucrose were also provided. Panelists were asked to estimate sweetness by comparing the sweetness of the test solution to the sucrose standards. This was carried out by taking 3 sips of the test solution, followed by a sip of water, followed by 3 sips of sucrose standard followed by a sip of water, etc. Panelists were encouraged to estimate the sweetness to one decimal place, e.g., 6.8, 8.5. A five minute rest period was imposed between evaluating the test solutions. Panelists were also asked to rinse well and eat a cracker to reduce any potential carry over effects.
If a pseudo-first order breakdown reaction is assumed, a plot of logn percentage retention versus time (logn % RTN v. t) allows estimation of the half-life (t½) and rate constant (k) of sweetness loss under any given set of conditions. In so doing, the kinetics of monatin and aspartame sweetness loss may be summarized as follows in Table 14.

SMILES: NC(CC(O)(Cc1c[nH]c2ccccc12)C(=O)O)C(=O)O (single isomer, unassigned) [S,S stereoisomer of monatin]
sweetness relative to sucrose by weight [1]: 50-200 times sweeter than sucrose

Rate constant (k) of sweetness loss ([3]; pH 2.5): 0.013 day⁻¹
Sweetness Retained ([3]; pH 2.5): 11%
Retention of Aspartame Sweetness ([3]; pH 2.5, day 1): 94.0%
Retention of Aspartame Sweetness ([3]; pH 2.5, day 2): 92.6%
Retention of Aspartame Sweetness ([3]; pH 2.5, day 3): 89.9%
Retention of Aspartame Sweetness ([3]; pH 2.5, day 4): 85.7%
Retention of Aspartame Sweetness ([3]; pH 2.5, day 7): 81.9%
Retention of Aspartame Sweetness ([3]; pH 2.5, day 8): 81.5%
Retention of Aspartame Sweetness ([3]; pH 2.5, day 9): 81.3%
Retention of Aspartame Sweetness ([3]; pH 2.5, day 11): 79.8%
Retention of Aspartame Sweetness ([3]; pH 2.5, day 50): 57.1%
Retention of Aspartame Sweetness ([3]; pH 2.5, day 100): 10.9%
Rate constant (k) of sweetness loss ([3]; pH 3.0): 0.009 day⁻¹
Sweetness Retained ([3]; pH 3.0): 31%
Retention of Aspartame Sweetness ([3]; pH 3.0, day 1): 96.5%
Retention of Aspartame Sweetness ([3]; pH 3.0, day 2): 96.1%
Retention of Aspartame Sweetness ([3]; pH 3.0, day 3): 92.3%
Retention of Aspartame Sweetness ([3]; pH 3.0, day 4): 89.9%
Retention of Aspartame Sweetness ([3]; pH 3.0, day 7): 86.3%
Retention of Aspartame Sweetness ([3]; pH 3.0, day 8): 82.9%
Retention of Aspartame Sweetness ([3]; pH 3.0, day 9): 83.1%
Retention of Aspartame Sweetness ([3]; pH 3.0, day 11): 81.5%
Retention of Aspartame Sweetness ([3]; pH 3.0, day 50): 65.9%
Retention of Aspartame Sweetness ([3]; pH 3.0, day 100): 30.8%
Rate constant (k) of sweetness loss ([3]; pH 4.0): 0.005 day⁻¹
Sweetness Retained ([3]; pH 4.0): 58%
Retention of Aspartame Sweetness ([3]; pH 4.0, day 3): 95.1%
Retention of Aspartame Sweetness ([3]; pH 4.0, day 8): 87.8%
Retention of Aspartame Sweetness ([3]; pH 4.0, day 11): 84.8%
Retention of Aspartame Sweetness ([3]; pH 4.0, day 17): 81.0%
Retention of Aspartame Sweetness ([3]; pH 4.0, day 24): 82.4%
Retention of Aspartame Sweetness ([3]; pH 4.0, day 50): 74.5%
Retention of Aspartame Sweetness ([3]; pH 4.0, day 100): 57.7%
SMILES: COC(=O)[C@H](Cc1ccccc1)NC(=O)[C@@H](N)CC(=O)O [Aspartame, reference compound] (H-Asp-Phe-OMe)
Comments: flavor enhancement (lemon flavor notes) [2]: tea flavor. No evidence of flavor
Comments: sweetness and flavor profile [2]: Good temporal characteristics although
SEV Aspartame ([3]; pH 2.5, day 0): 7.34 % sucrose
SEV Aspartame ([3]; pH 2.5, day 1): 6.90 % sucrose
SEV Aspartame ([3]; pH 2.5, day 2): 6.80 % sucrose
SEV Aspartame ([3]; pH 2.5, day 3): 6.60 % sucrose
SEV Aspartame ([3]; pH 2.5, day 4): 6.29 % sucrose
SEV Aspartame ([3]; pH 2.5, day 7): 6.01 % sucrose
SEV Aspartame ([3]; pH 2.5, day 8): 5.98 % sucrose
SEV Aspartame ([3]; pH 2.5, day 9): 5.97 % sucrose
SEV Aspartame ([3]; pH 2.5, day 11): 5.86 % sucrose
SEV Aspartame ([3]; pH 2.5, day 50): 4.19 % sucrose
SEV Aspartame ([3]; pH 2.5, day 100): 0.80 % sucrose
SEV Aspartame ([3]; pH 3.0, day 0): 7.15 % sucrose
SEV Aspartame ([3]; pH 3.0, day 1): 6.90 % sucrose
SEV Aspartame ([3]; pH 3.0, day 2): 6.87 % sucrose
SEV Aspartame ([3]; pH 3.0, day 3): 6.60 % sucrose
SEV Aspartame ([3]; pH 3.0, day 4): 6.43 % sucrose
SEV Aspartame ([3]; pH 3.0, day 7): 6.17 % sucrose
SEV Aspartame ([3]; pH 3.0, day 8): 5.93 % sucrose
SEV Aspartame ([3]; pH 3.0, day 9): 5.94 % sucrose
SEV Aspartame ([3]; pH 3.0, day 11): 5.83 % sucrose
SEV Aspartame ([3]; pH 3.0, day 50): 4.71 % sucrose
SEV Aspartame ([3]; pH 3.0, day 100): 2.20 % sucrose
SEV Aspartame ([3]; pH 4.0, day 0): 7.10 % sucrose
SEV Aspartame ([3]; pH 4.0, day 3): 6.75 % sucrose
SEV Aspartame ([3]; pH 4.0, day 8): 6.23 % sucrose
SEV Aspartame ([3]; pH 4.0, day 11): 6.02 % sucrose
SEV Aspartame ([3]; pH 4.0, day 17): 5.75 % sucrose
SEV Aspartame ([3]; pH 4.0, day 24): 5.85 % sucrose
SEV Aspartame ([3]; pH 4.0, day 50): 5.29 % sucrose
SEV Aspartame ([3]; pH 4.0, day 100): 4.10 % sucrose

SMILES: N[C@@H](C[C@@](O)(Cc1c[nH]c2ccccc12)C(=O)O)C(=O)O (single isomer, unassigned) [R,R stereoisomer of monatin]
sweetness relative to sucrose by weight [1]: 2000-2400 times sweeter than sucrose

SMILES: OC[C@H]1O[C@H](O[C@]2(CCl)O[C@H](CCl)[C@@H](O)[C@@H]2O)[C@H](O)[C@@H](O)[C@H]1Cl [Sucralose]
Comments: sweetness and flavor profile [2]: Delay in sweetness onset means first

— patent publication US20050170041A1, “Chewing gum compositions comprising monatin and methods for making same” (Cargill, Inc., priority 2003, published 2005)
